Measured values as given in BindingDB's records for doi:10.7270/Q2028PXQ (The Scripps Research Institute Molecular Screening Center, 2007).
pEC50: −log10 of the molar value.

Each compound was assayed against Steroidogenic factor 1 (Homo sapiens, UniProt Q13285) (assay: SF-1 driven luciferase reporter response, dose response, counter-screen for RORA activator project, CHO-K1 cells (AID 695)). Conditions: not given.
Steroidogenic factor 1, sequence (Q13285 whole entry): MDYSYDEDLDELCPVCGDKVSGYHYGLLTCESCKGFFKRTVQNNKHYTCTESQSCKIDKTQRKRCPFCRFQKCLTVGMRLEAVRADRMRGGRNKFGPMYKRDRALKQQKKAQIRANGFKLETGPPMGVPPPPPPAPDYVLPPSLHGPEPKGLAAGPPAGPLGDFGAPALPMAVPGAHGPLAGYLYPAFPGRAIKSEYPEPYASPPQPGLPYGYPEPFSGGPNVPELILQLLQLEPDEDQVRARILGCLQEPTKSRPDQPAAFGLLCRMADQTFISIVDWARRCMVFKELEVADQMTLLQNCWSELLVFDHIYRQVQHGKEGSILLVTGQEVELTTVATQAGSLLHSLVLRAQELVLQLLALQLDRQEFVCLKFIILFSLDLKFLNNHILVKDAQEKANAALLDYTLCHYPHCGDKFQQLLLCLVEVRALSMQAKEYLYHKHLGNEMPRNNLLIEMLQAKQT
Compound CC1=CCC(COC(=O)Nc2ccccc2)CC1 (configuration not stated) [(4-methylcyclohex-3-en-1-yl)methyl N-phenylcarbamate] has a pEC50 of 5.91.
COCCOC(=O)c1[nH]c2c(c1C)C(=O)CC(c1cc(OC)ccc1OC)C2 (configuration not stated) [2-methoxyethyl 6-(2,5-dimethoxyphenyl)-3-methyl-4-oxo-1,5,6,7-tetrahydroindole-2-carboxylate] gave a pEC50 of 5.12.
Cc1ccc(-c2nc(C#N)c(NCc3ccco3)o2)cc1 [5-(2-furanylmethylamino)-2-(4-methylphenyl)-4-oxazolecarbonitrile] gave a pEC50 of 5.47.
CC(=O)C(C)Oc1ccc2c3c(c(=O)oc2c1C)CCCC3 (configuration not stated) [3-(2-keto-1-methyl-propoxy)-4-methyl-7,8,9,10-tetrahydrobenzo[c]chromen-6-one] was tested, and the pEC50 was 6.09.
Cc1cc(NC(=O)c2oc3ccccc3c2C)ccc1-n1cnnn1 [3-Methyl-benzofuran-2-carboxylic acid (3-methyl-4-tetrazol-1-yl-phenyl)-amide] was tested, and the pEC50 was 5.49.
For COC(=O)c1c(NC(=O)CC2SCC(C(=O)OC)NC2=O)sc2c1CCCC2 (configuration not stated) [6-[2-[(3-carbomethoxy-4,5,6,7-tetrahydrobenzothiophen-2-yl)amino]-2-keto-ethyl]-5-keto-thiomorpholine-3-carboxylic acid methyl ester], the pEC50 was under 4.00.
CCOC(=O)c1ccccc1NC(=O)CSc1nnnn1C1CCCCC1 [2-[2-(1-Cyclohexyl-1H-tetrazol-5-ylsulfanyl)-acetylamino]-benzoic acid ethyl ester] gave a pEC50 of under 4.00.
With COc1ccc2nc(NC(=O)CSc3nnc(-c4ccoc4C)n3C)sc2c1 [MLS000073639] the pEC50 was 5.32.
Work on COc1ccc(Nc2oc(-c3ccccc3Cl)nc2C#N)cc1 [2-(2-chlorophenyl)-5-(4-methoxyanilino)-1,3-oxazole-4-carbonitrile] yielded a pEC50 of 5.56.
For Cc1ccccc1Cn1ccc(NC(=O)c2onc(C)c2Cl)n1 [4-chloranyl-3-methyl-N-[1-[(2-methylphenyl)methyl]pyrazol-3-yl]-1,2-oxazole-5-carboxamide], the pEC50 was 5.14.
COc1ccc(CCC(=O)Nc2ccc3c(c2)OCCO3)cc1 [MLS000110197] was tested, and the pEC50 was under 4.00.
Compound O=C1N(CCCN2C(=O)C3(OCCO3)c3ccccc32)c2ccccc2C12OCCO2 [1'-[3-(2'-ketospiro[1,3-dioxolane-2,3'-indoline]-1'-yl)propyl]spiro[1,3-dioxolane-2,3'-indoline]-2'-one] has a pEC50 of under 4.00.
In the case of COc1ccc(C(=O)Nc2cc(C)on2)cc1 [4-methoxy-N-(5-methyl-1,2-oxazol-3-yl)benzamide], the pEC50 was 6.04.
For CCn1c(Cn2nnc(-c3ccccc3)n2)nnc1SCC(=O)Nc1ccc(C(C)=O)cc1 [MLS000068275], the pEC50 was 5.67.
CCOC(=O)Nc1ccc2c(c1)Nc1ccccc1S2 [(10H-Phenothiazin-2-yl)-carbamic acid ethyl ester] was tested, and the pEC50 was under 5.44.
CN1CCN(S(=O)(=O)c2ccc(Br)s2)CC1 [1-(5-bromanylthiophen-2-yl)sulfonyl-4-methyl-piperazine] was tested, and the pEC50 was under 4.00.
In the case of COc1cc(C)c(C(C)C)cc1S(=O)(=O)n1cnc(C)c1 [1-(2-methoxy-4-methyl-5-propan-2-yl-phenyl)sulfonyl-4-methyl-imidazole], the pEC50 was 5.88.
Cc1cc(N)c(NC2=CC(=O)CC(C)(C)C2)cc1C [3-(2-amino-4,5-dimethyl-anilino)-5,5-dimethyl-cyclohex-2-en-1-one] showed a pEC50 of under 4.96.
With Cc1c(C(=O)OCC2CCCO2)[nH]c2c1C(=O)CC(c1ccco1)C2 (configuration not stated) [oxolan-2-ylmethyl 6-(furan-2-yl)-3-methyl-4-oxo-1,5,6,7-tetrahydroindole-2-carboxylate] the pEC50 was 5.91.
Work on COc1ccc(C(=O)n2c(-c3ccco3)nc3ccccc32)cc1 [MLS000039368] yielded a pEC50 of 5.32.
CCN(CCCNC(=O)c1cn(CC)c2ccc(S(=O)(=O)N(C)C)cc2c1=O)c1cccc(C)c1 [6-(dimethylsulfamoyl)-1-ethyl-N-[3-(N-ethyl-3-methyl-anilino)propyl]-4-keto-quinoline-3-carboxamide] gave a pEC50 of under 4.00.
With CCOc1cc(N2CCOCC2)c(OCC)cc1NS(=O)(=O)c1ccc(Cl)s1 [5-chloranyl-N-(2,5-diethoxy-4-morpholin-4-yl-phenyl)thiophene-2-sulfonamide] the pEC50 was 5.91.
For C=CCOc1ccc(C=CC(C)N=O)cc1 (configuration not stated) [(E)-4-(4-allyloxyphenyl)but-3-en-2-one oxime], the pEC50 was 5.99.
COc1cccc(NC(=O)c2nnn(Cc3ccc(Br)cc3F)c2N)c1 [5-amino-1-(4-bromo-2-fluoro-benzyl)-N-(3-methoxyphenyl)triazole-4-carboxamide] was tested, and the pEC50 was 5.36.
CCCCOc1ccc(-c2nnn(CC(=O)NCc3ccco3)n2)cc1 [2-[5-(4-Butoxy-phenyl)-tetrazol-2-yl]-N-furan-2-ylmethyl-acetamide] gave a pEC50 of 5.73.
With CCOC(=O)CSc1nc2cc(OCC)ccc2cc1C#N [(3-Cyano-7-ethoxy-quinolin-2-ylsulfanyl)-acetic acid ethyl ester] the pEC50 was 5.48.
Work on Cn1c(SCc2ccccc2F)nc2cccnc21 [2-(2-Fluoro-benzylsulfanyl)-3-methyl-3H-imidazo[4,5-b]pyridine] yielded a pEC50 of under 5.91.
O=C(Nc1ccc2nc(-c3ccc(Br)o3)[nH]c2c1)c1cccs1 [SMR000046012] showed a pEC50 of 5.39.
Work on Cn1cccc1C(=O)OCc1csc(-c2ccccc2)n1 [(2-phenyl-1,3-thiazol-4-yl)methyl 1-methylpyrrole-2-carboxylate] yielded a pEC50 of 6.89.
In the case of COc1ccccc1-c1nnc(NC(C)=O)s1 [MLS000041972], the pEC50 was 5.89.
CCn1c(-c2ccc(N(C)C)cc2)nc2ccccc21 [4-(1-ethyl-2-benzimidazolyl)-N,N-dimethylaniline] was tested, and the pEC50 was 6.27.
Compound Nc1c(C(=O)NCCN2CCOCC2)c2nc3ccccc3nc2n1-c1ccc2c(c1)OCO2 [2-amino-1-(1,3-benzodioxol-5-yl)-N-(2-morpholin-4-ylethyl)pyrrolo[3,2-b]quinoxaline-3-carboxamide] has a pEC50 of under 4.96.
With O=C1OC(N2CCN(Cc3ccccc3)CC2)c2ccccc21 (configuration not stated) [3-(4-benzylpiperazin-1-yl)-3H-2-benzofuran-1-one] the pEC50 was under 4.00.
Compound Cc1cc(NCCOCCO)n2ncc(-c3ccc(Cl)cc3)c2n1 [2-[2-[[3-(4-chlorophenyl)-5-methyl-7-pyrazolo[1,5-a]pyrimidinyl]amino]ethoxy]ethanol] has a pEC50 of 6.31.
With Cc1nc(N=CN(C)C)sc1C(=O)Nc1ccccc1 [SMR000107046] the pEC50 was 5.21.
Work on O=C(Nc1nnc(C23CC4CC(CC(C4)C2)C3)s1)c1ccco1 [N-[5-(1-adamantyl)-1,3,4-thiadiazol-2-yl]furan-2-carboxamide] yielded a pEC50 of 6.59.
Work on Oc1coc2ccc(OCc3ccc(F)cc3)cc12 [5-(4-fluorobenzyl)oxycoumaran-3-one] yielded a pEC50 of 5.77.
Work on CCOc1ccc(-c2nc(C#N)c(NC3CC3)o2)cc1 [5-(cyclopropylamino)-2-(4-ethoxyphenyl)-1,3-oxazole-4-carbonitrile] yielded a pEC50 of 5.40.
With O=C(Nc1ccc(N2CCCCC2)cc1)c1cncc(Br)c1 [5-bromanyl-N-(4-piperidin-1-ylphenyl)pyridine-3-carboxamide] the pEC50 was 5.97.
For COc1cccc(-c2noc(-c3cccs3)n2)c1 [3-(3-methoxyphenyl)-5-(2-thienyl)-1,2,4-oxadiazole], the pEC50 was 6.65.
With Cc1cccn2cc(-c3ccccc3)nc12 [8-methyl-2-phenyl-imidazo[1,2-a]pyridine] the pEC50 was 6.72.
Work on CC(C)CNS(=O)(=O)c1ccc(C(=O)Nc2ccc3c(c2)OCCO3)cc1 [MLS000032888] yielded a pEC50 of 5.26.
In the case of COc1cccc(-c2noc(-c3cccnc3)n2)c1 [3-(3-methoxyphenyl)-5-(3-pyridinyl)-1,2,4-oxadiazole], the pEC50 was 5.76.
Cc1ccc2c(c1)c1c3n2CCCNC3CCC1 (configuration not stated) [MLS000105423] gave a pEC50 of under 4.00.
With O=C(c1ccc(-c2nnc(-c3ccccc3)o2)cc1)N1CCCCCC1 [1-azepanyl-[4-(5-phenyl-1,3,4-oxadiazol-2-yl)phenyl]methanone] the pEC50 was 6.60.
Clc1ccc(-c2nnc(-c3ccccc3Cl)o2)cc1 [2-(2-chlorophenyl)-5-(4-chlorophenyl)-1,3,4-oxadiazole] gave a pEC50 of 6.63.
Work on CCOc1ccc2nc(NC(=O)c3cnccn3)sc2c1 [MLS000070707] yielded a pEC50 of 6.85.
In the case of CCc1nnc2c3cnn(-c4ccccc4)c3ncn12 [MLS000080478], the pEC50 was 5.29.
Compound COc1ccc(C(O)P(=O)(O)CCc2ccccc2)cc1 (configuration not stated) [MLS000038577] has a pEC50 of under 4.00.
CCOc1ccc2nc(N3CCC(C(=O)N4CCN(c5ccccn5)CC4)CC3)sc2c1 [MLS000119552] showed a pEC50 of under 4.00.
CCOc1ccc(C=CC(C)N=O)cc1 (configuration not stated) [(Z)-4-(4-ethoxyphenyl)-3-buten-2-one oxime] showed a pEC50 of under 6.39.
COc1ccccc1-c1nc(-c2ccncc2)no1 [4-[5-(2-Methoxy-phenyl)-[1,2,4]oxadiazol-3-yl]-pyridine] was tested, and the pEC50 was 5.91.
With O=C(NCc1cccs1)c1noc2c1CCCC2 [MLS000087354] the pEC50 was 5.30.
Clc1ccccc1OCCn1cnc2ccccc21 [1-[2-(2-chloranylphenoxy)ethyl]benzimidazole] showed a pEC50 of 5.44.
With CCCCOC(=O)C(C)Oc1ccc(=O)n(-c2ccccc2)n1 (configuration not stated) [2-(6-keto-1-phenyl-pyridazin-3-yl)oxypropionic acid butyl ester] the pEC50 was under 4.00.
Cc1ccc2nc(Nc3ccc4[nH]c(O)nc4c3)c(-n3nc(C)cc3C)nc2c1 [5-[[3-(3,5-dimethyl-1-pyrazolyl)-6-methyl-2-quinoxalinyl]amino]-1,3-dihydrobenzimidazol-2-one] gave a pEC50 of under 5.91.
CCN(CC)C(=O)Oc1ccc2c(=O)c(-c3ccccc3)coc2c1 [(4-oxidanylidene-3-phenyl-chromen-7-yl) N,N-diethylcarbamate] showed a pEC50 of 6.08.
In the case of Oc1ccc(Cl)cc1C=Nc1nc2ccccc2[nH]1 [SMR000103225], the pEC50 was under 4.00.

Same assay, conditions: inactive by the depositor's call
O=C(c1ccco1)N1CCN(c2ncnc3c(-c4ccccc4)nsc23)CC1 [2-furanyl-[4-(3-phenyl-7-isothiazolo[4,5-d]pyrimidinyl)-1-piperazinyl]methanone] showed a pEC50 of 4.68.
O=C(CSc1nc[nH]n1)Nc1nnc(-c2ccccc2)s1 [SMR000091719] was tested, and the pEC50 was 4.90.
For O=C(NC1CCCC1)c1cc(-c2cccs2)on1 [MLS000087238], the pEC50 was 4.96.
Compound O=c1c2ccccc2nc2ccc(NCc3ccco3)nn12 [2-(2-furanylmethylamino)-10-pyridazino[6,1-b]quinazolinone] has a pEC50 of 4.56.
